Non-standard residues stand in square brackets, D forms with d. Residues, ends and D or L forms follow the SMILES beside them. βAla = NCCC(=O)O; Sar = CNCC(=O)O
Target: T1, furin (Homo sapiens, UniProt P09958)
T1 construct: made in house; host or cells: Drosophila S2 cells (Invitrogen expression system)
Test: biochemical
Settings: furin, Pyr-RTKR-AMC substrate; alanine scanning mutagenesis of the H5 furin cleavage sequence (Table 2); read-out: Ki

T1 sequence (P09958 108-794 limits assumed): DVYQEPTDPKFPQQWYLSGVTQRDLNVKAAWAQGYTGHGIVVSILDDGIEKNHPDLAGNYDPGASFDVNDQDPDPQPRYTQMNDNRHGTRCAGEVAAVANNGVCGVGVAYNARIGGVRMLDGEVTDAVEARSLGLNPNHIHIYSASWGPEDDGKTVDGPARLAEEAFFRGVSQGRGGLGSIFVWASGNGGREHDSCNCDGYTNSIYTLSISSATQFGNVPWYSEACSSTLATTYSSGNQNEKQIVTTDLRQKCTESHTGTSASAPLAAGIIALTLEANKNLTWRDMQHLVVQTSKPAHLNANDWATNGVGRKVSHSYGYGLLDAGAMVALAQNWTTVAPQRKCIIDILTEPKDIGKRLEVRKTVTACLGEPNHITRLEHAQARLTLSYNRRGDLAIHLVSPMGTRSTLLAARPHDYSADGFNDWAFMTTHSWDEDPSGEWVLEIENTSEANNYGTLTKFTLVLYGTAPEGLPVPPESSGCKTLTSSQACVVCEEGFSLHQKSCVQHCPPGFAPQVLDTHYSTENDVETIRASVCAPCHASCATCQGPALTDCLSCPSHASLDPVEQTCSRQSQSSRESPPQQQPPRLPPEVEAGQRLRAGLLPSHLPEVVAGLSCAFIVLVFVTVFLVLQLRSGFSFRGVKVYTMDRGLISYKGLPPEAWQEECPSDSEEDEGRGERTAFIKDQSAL

Row | Structure (SMILES) | Ki [nM]
1 | C[C@H](NC(=O)[C@H](C)NC(=O)[C@H](CCCCN)NC(=O)[C@H](CCCNC(=N)N)NC(=O)[C@H](CCCNC(=N)N)NC(=O)[C@H](CCCNC(=N)N)NC(=O)[C@H](CCC(=O)O)NC(=O)[C@H](CCCNC(=N)N)NC(=O)[C@@H]1CCCN1C(=O)[C@@H](N)[C@@H](C)O)C(N)=O (H-TPRERRRKAA-NH2) | > 100
2 | CC(C)[C@H](NC(=O)[C@H](CCCNC(=N)N)NC(=O)[C@H](CCCCN)NC(=O)[C@H](CCCCN)NC(=O)[C@H](CCCNC(=N)N)NC(=O)[C@H](CCCNC(=N)N)NC(=O)[C@H](CCCNC(=N)N)NC(=O)[C@H](CCC(=O)O)NC(=O)[C@H](CCCNC(=N)N)NC(=O)[C@@H]1CCCN1C(=O)[C@H](C)N)C(N)=O (H-APRERRRKKRV-NH2) | > 100
3 | C[C@H](NC(=O)[C@H](C)NC(=O)[C@H](CCCNC(=N)N)NC(=O)[C@@H]1CCCN1C(=O)[C@@H](N)[C@@H](C)O)C(=O)N[C@@H](CCCNC(=N)N)C(=O)N[C@@H](CCCNC(=N)N)C(=O)N[C@@H](CCCCN)C(=O)N[C@@H](CCCCN)C(=O)N[C@@H](CCCNC(=N)N)C(=O)N(C)CC(N)=O (H-TPRAARRKKR[Sar]-NH2) | > 100
4 | C[C@H](NC(=O)[C@H](C)NC(=O)[C@@H]1CCCN1C(=O)[C@@H](N)[C@@H](C)O)C(=O)N[C@@H](C)C(=O)N[C@@H](CCCNC(=N)N)C(=O)N[C@@H](CCCNC(=N)N)C(=O)N[C@@H](CCCCN)C(=O)N[C@@H](CCCCN)C(=O)N[C@@H](CCCNC(=N)N)C(=O)NCC(N)=O (H-TPAAARRKKRG-NH2) | > 100
5 | C[C@H](NC(=O)[C@H](C)NC(=O)[C@@H](N)[C@@H](C)O)C(=O)N[C@@H](CCC(=O)O)C(=O)N[C@@H](CCCNC(=N)N)C(=O)N[C@@H](CCCNC(=N)N)C(=O)N[C@@H](CCCNC(=N)N)C(=O)N[C@@H](CCCCN)C(=O)N[C@@H](CCCCN)C(=O)N[C@@H](CCCNC(=N)N)C(N)=O (H-TAAERRRKKR-NH2) | > 100
6 | C[C@H](NC(=O)[C@H](CCCCN)NC(=O)[C@H](CCCNC(=N)N)NC(=O)[C@H](CCCNC(=N)N)NC(=O)[C@H](CCCNC(=N)N)NC(=O)[C@H](CCC(=O)O)NC(=O)[C@H](CCCNC(=N)N)NC(=O)[C@@H]1CCCN1C(=O)[C@@H](N)[C@@H](C)O)C(=O)N[C@@H](CCCNC(=N)N)C(N)=O (H-TPRERRRKAR-NH2) | > 100
7 | C[C@H](NC(=O)[C@H](CCCCN)NC(=O)[C@H](CCCNC(=N)N)NC(=O)[C@H](CCCNC(=N)N)NC(=O)[C@H](CCCNC(=N)N)NC(=O)[C@H](CCC(=O)O)NC(=O)[C@H](CCCNC(=N)N)NC(=O)[C@@H]1CCCN1C(=O)[C@@H](N)[C@@H](C)O)C(=O)N[C@@H](CCCNC(=N)N)C(=O)N(C)CC(N)=O (H-TPRERRRKAR[Sar]-NH2) | > 100
8 | CC(C)[C@H](NC(=O)[C@H](CCCNC(=N)N)NC(=O)[C@H](CCCCN)NC(=O)[C@H](CCCCN)NC(=O)[C@H](CCCNC(=N)N)NC(=O)[C@H](CCCNC(=N)N)NC(=O)[C@H](CCCNC(=N)N)NC(=O)[C@H](CCC(=O)O)NC(=O)[C@H](C)NC(=O)[C@H](C)NC(=O)[C@@H](N)[C@@H](C)O)C(N)=O (H-TAAERRRKKRV-NH2) | > 100
9 | C[C@H](NC(=O)[C@H](C)NC(=O)[C@H](CCC(=O)O)NC(=O)[C@H](CCCNC(=N)N)NC(=O)[C@@H]1CCCN1C(=O)[C@@H](N)[C@@H](C)O)C(=O)N[C@@H](C)C(=O)N[C@@H](CCCCN)C(=O)N[C@@H](CCCCN)C(=O)N[C@@H](CCCNC(=N)N)C(=O)N(C)CC(N)=O (H-TPREAAAKKR[Sar]-NH2) | > 100
10 | C[C@H](NC(=O)[C@H](CCCNC(=N)N)NC(=O)[C@@H]1CCCN1C(=O)[C@@H](N)[C@@H](C)O)C(=O)N[C@@H](CCCNC(=N)N)C(=O)N[C@@H](CCCNC(=N)N)C(=O)N[C@@H](CCCNC(=N)N)C(=O)N[C@@H](CCCCN)C(=O)N[C@@H](CCCCN)C(=O)N[C@@H](CCCNC(=N)N)C(N)=O | 138

Same assay, conditions: furin, Pyr-RTKR-AMC substrate; optimization of the inhibitory peptides (Table 3); read-out: Ki

Row | Structure (SMILES) | Ki [nM]
11 | C[C@@H](O)[C@H](N)C(=O)N1CCC[C@H]1C(=O)N[C@@H](CCC(N)=O)C(=O)N[C@@H](CCCNC(=N)N)C(=O)N[C@@H](CCCCN)C(=O)N[C@@H](CCCNC(=N)N)C(=O)N[C@@H](CCCNC(=N)N)C(=O)N[C@@H](CCCNC(=N)N)C(=O)N[C@@H](CCCCN)C(=O)N[C@@H](CCCCN)C(=O)N[C@@H](CCCNC(=N)N)C(=O)NCC(N)=O | > 100
12 | C[C@H](NC(=O)[C@H](CCCNC(=N)N)NC(=O)[C@H](CCC(N)=O)NC(=O)[C@@H]1CCCN1C(=O)[C@@H](N)[C@@H](C)O)C(=O)N[C@@H](CCCNC(=N)N)C(=O)N[C@@H](CCCNC(=N)N)C(=O)N[C@@H](CCCNC(=N)N)C(=O)N[C@@H](CCCCN)C(=O)N[C@@H](CCCCN)C(=O)N[C@@H](CCCNC(=N)N)C(=O)NCCC(N)=O (H-TPQRARRRKKR[βAla]-NH2) | > 100
13 | C[C@H](NC(=O)[C@H](CCCNC(=N)N)NC(=O)[C@H](CCC(N)=O)NC(=O)[C@@H]1CCCN1C(=O)[C@@H](N)[C@@H](C)O)C(=O)N[C@@H](CCCNC(=N)N)C(=O)N[C@@H](CCCNC(=N)N)C(=O)N[C@@H](CCCNC(=N)N)C(=O)N[C@@H](CCCCN)C(=O)N[C@@H](CCCCN)C(=O)N[C@@H](CCCNC(=N)N)C(=O)N[C@@H](CO)C(N)=O (H-TPQRARRRKKRS-NH2) | > 100
14 | CSCC[C@H](NC(=O)[C@H](CCCNC(=N)N)NC(=O)[C@H](CCC(N)=O)NC(=O)[C@@H]1CCCN1C(=O)[C@@H](N)[C@@H](C)O)C(=O)N[C@@H](CCCNC(=N)N)C(=O)N[C@@H](CCCNC(=N)N)C(=O)N[C@@H](CCCNC(=N)N)C(=O)N[C@@H](CCCCN)C(=O)N[C@@H](CCCCN)C(=O)N[C@@H](CCCNC(=N)N)C(=O)NCC(N)=O | > 100
15 | C[C@H](NC(=O)[C@H](CCCNC(=N)N)NC(=O)[C@H](CCC(N)=O)NC(=O)[C@@H]1CCCN1C(=O)[C@@H](N)[C@@H](C)O)C(=O)N[C@@H](CCCNC(=N)N)C(=O)N[C@@H](CCCNC(=N)N)C(=O)N[C@@H](CCCNC(=N)N)C(=O)N[C@@H](CCCCN)C(=O)N[C@@H](CCCCN)C(=O)N[C@@H](CCCNC(=N)N)C(=O)N[C@H](C(N)=O)[C@@H](C)O (H-TPQRARRRKKRT-NH2) | 33
16 | C[C@@H](O)[C@H](N)C(=O)N1CCC[C@H]1C(=O)N[C@@H](CCC(N)=O)C(=O)N[C@@H](CCCNC(=N)N)C(=O)N1CCC[C@H]1C(=O)N[C@@H](CCCNC(=N)N)C(=O)N[C@@H](CCCNC(=N)N)C(=O)N[C@@H](CCCNC(=N)N)C(=O)N[C@@H](CCCCN)C(=O)N[C@@H](CCCCN)C(=O)N[C@@H](CCCNC(=N)N)C(=O)NCC(N)=O (H-TPQRPRRRKKRG-NH2) | > 100
17 | C[C@@H](O)[C@H](N)C(=O)N1CCC[C@H]1C(=O)N[C@@H](CCC(N)=O)C(=O)N[C@@H](CCCNC(=N)N)C(=O)NCCCCCC(=O)N[C@@H](CCCNC(=N)N)C(=O)N[C@@H](CCCNC(=N)N)C(=O)N[C@@H](CCCNC(=N)N)C(=O)N[C@@H](CCCCN)C(=O)N[C@@H](CCCCN)C(=O)N[C@@H](CCCNC(=N)N)C(=O)NCC(N)=O [TPQR2RRRKKRG] | > 100
18 | C[C@@H](O)[C@H](N)C(=O)N1CCC[C@H]1C(=O)N[C@@H](CCC(N)=O)C(=O)N[C@@H](CCCNC(=N)N)C(=O)N[C@@H](Cc1ccc(O)cc1)C(=O)N[C@@H](CCCNC(=N)N)C(=O)N[C@@H](CCCNC(=N)N)C(=O)N[C@@H](CCCNC(=N)N)C(=O)N[C@@H](CCCCN)C(=O)N[C@@H](CCCCN)C(=O)N[C@@H](CCCNC(=N)N)C(=O)NCC(N)=O (H-TPQRYRRRKKRG-NH2) | > 100
19 | C[C@H](NC(=O)[C@H](CCCNC(=N)N)NC(=O)[C@H](CCC(N)=O)NC(=O)[C@@H]1CCCN1C(=O)[C@@H](N)[C@@H](C)O)C(=O)N[C@@H](CCCNC(=N)N)C(=O)N[C@@H](CCCNC(=N)N)C(=O)N[C@@H](CCCNC(=N)N)C(=O)N[C@@H](CCCCN)C(=O)N[C@@H](CCCCN)C(=O)N[C@@H](CCCNC(N)=O)C(=O)NCC(N)=O | > 100

Source: patent publication US8053553B2, “Targeting host proteinases as a therapeutic strategy against viral and bacterial pathogens” (Socpra Sciences Sante Et Humaines, priority 2007, dated 2011)
